# System: Dnmt3a^WT cells
# Assay: RNA-sequencing of HSPCs treated in vitro with ADP-heptose or H2O for 90 minutes
# Assay type: cell-based, mouse
smiles,measurement,setting,value
"Nc1ncnc2c1ncn2[C@@H]1O[C@H](COP(=O)(O)OP(=O)(O)O[C@@H]2O[C@H]([C@H](O)CO)[C@@H](O)[C@H](O)[C@@H]2O)[C@@H](O)[C@H]1O [ADP-heptose, ADP-D-glycero-β-D-manno-heptose]",logFC 2900005J15Rik,"Dnmt3a^WT cells, vs H2O",0.6052
same,logFC AI607873,"Dnmt3a^WT cells, vs H2O",0.6683
same,logFC Abca1,"Dnmt3a^WT cells, vs H2O",−0.707
same,logFC Acsbg1,"Dnmt3a^WT cells, vs H2O",0.5944
same,logFC Adgrg6,"Dnmt3a^WT cells, vs H2O",−0.645
same,logFC Akap12,"Dnmt3a^WT cells, vs H2O",−1.955
same,logFC Akr1c18,"Dnmt3a^WT cells, vs H2O",0.7051
same,logFC Alpk2,"Dnmt3a^WT cells, vs H2O",1.196
same,logFC Aoc1,"Dnmt3a^WT cells, vs H2O",2.048
same,logFC Arg1,"Dnmt3a^WT cells, vs H2O",0.7872
same,logFC Arl5c,"Dnmt3a^WT cells, vs H2O",−0.704
same,logFC Arntl,"Dnmt3a^WT cells, vs H2O",−0.87
same,logFC Asb2,"Dnmt3a^WT cells, vs H2O",1.407
same,logFC Atoh8,"Dnmt3a^WT cells, vs H2O",0.7783
same,logFC Azin2,"Dnmt3a^WT cells, vs H2O",0.6183
same,logFC B3galt5,"Dnmt3a^WT cells, vs H2O",0.9015
same,logFC Bach2,"Dnmt3a^WT cells, vs H2O",−0.675
same,logFC Bcl2a1b,"Dnmt3a^WT cells, vs H2O",0.925
same,logFC Bcl2a1d,"Dnmt3a^WT cells, vs H2O",0.6551
same,logFC Bhlha15,"Dnmt3a^WT cells, vs H2O",−0.596
same,logFC Blk,"Dnmt3a^WT cells, vs H2O",−1.578
same,logFC Blnk,"Dnmt3a^WT cells, vs H2O",−1.446
same,logFC Cacna1f,"Dnmt3a^WT cells, vs H2O",0.7515
same,logFC Ccdc63,"Dnmt3a^WT cells, vs H2O",−0.697
same,logFC Ccdc85c,"Dnmt3a^WT cells, vs H2O",0.7217
same,logFC Ccl5,"Dnmt3a^WT cells, vs H2O",1.104
same,logFC Ccl17,"Dnmt3a^WT cells, vs H2O",2.045
same,logFC Ccl22,"Dnmt3a^WT cells, vs H2O",0.7001
same,logFC Ccl24,"Dnmt3a^WT cells, vs H2O",1.365
same,logFC Cd19,"Dnmt3a^WT cells, vs H2O",−1.847
same,logFC Cd40,"Dnmt3a^WT cells, vs H2O",0.6226
same,logFC Cd74,"Dnmt3a^WT cells, vs H2O",0.82
same,logFC Cd79a,"Dnmt3a^WT cells, vs H2O",−1.818
same,logFC Cd83,"Dnmt3a^WT cells, vs H2O",1.204
same,logFC Cecr2,"Dnmt3a^WT cells, vs H2O",−1.929
same,logFC Chst3,"Dnmt3a^WT cells, vs H2O",−1.597
same,logFC Cmpk2,"Dnmt3a^WT cells, vs H2O",0.7001
same,logFC Cplx2,"Dnmt3a^WT cells, vs H2O",−1.36
same,logFC Cx3cl1,"Dnmt3a^WT cells, vs H2O",0.9782
same,logFC Cxc12,"Dnmt3a^WT cells, vs H2O",−1.129
same,logFC Cxcl3,"Dnmt3a^WT cells, vs H2O",−0.91
same,logFC Cyp4f17,"Dnmt3a^WT cells, vs H2O",0.6547
same,logFC Dact3,"Dnmt3a^WT cells, vs H2O",0.6573
same,logFC Dcstamp,"Dnmt3a^WT cells, vs H2O",0.6406
same,logFC Ddx60,"Dnmt3a^WT cells, vs H2O",0.7796
same,logFC Dhx58,"Dnmt3a^WT cells, vs H2O",0.8261
same,logFC Dntt,"Dnmt3a^WT cells, vs H2O",−2.827
same,logFC Dock9,"Dnmt3a^WT cells, vs H2O",−0.589
same,logFC Dsp,"Dnmt3a^WT cells, vs H2O",−0.701
same,logFC Ebf1,"Dnmt3a^WT cells, vs H2O",−2.106
same,logFC Ednrb,"Dnmt3a^WT cells, vs H2O",−0.653
same,logFC Efnb2,"Dnmt3a^WT cells, vs H2O",0.9402
same,logFC Egr3,"Dnmt3a^WT cells, vs H2O",0.785
same,logFC Eno2,"Dnmt3a^WT cells, vs H2O",0.6638
same,logFC Epsti1,"Dnmt3a^WT cells, vs H2O",0.6192
same,logFC Fam129c,"Dnmt3a^WT cells, vs H2O",−0.677
same,logFC Fam132b,"Dnmt3a^WT cells, vs H2O",−0.657
same,logFC Fktn,"Dnmt3a^WT cells, vs H2O",−0.609
same,logFC Gimap8,"Dnmt3a^WT cells, vs H2O",0.7417
same,logFC Gm13152,"Dnmt3a^WT cells, vs H2O",−0.827
same,logFC Gpr27,"Dnmt3a^WT cells, vs H2O",0.7663
same,logFC Grap,"Dnmt3a^WT cells, vs H2O",0.7694
same,logFC Grasp,"Dnmt3a^WT cells, vs H2O",0.5879
same,logFC Grin2c,"Dnmt3a^WT cells, vs H2O",0.9953
same,logFC Grtp1,"Dnmt3a^WT cells, vs H2O",−0.628
same,logFC Gstt1,"Dnmt3a^WT cells, vs H2O",1.055
same,logFC Gzmc,"Dnmt3a^WT cells, vs H2O",2.215
same,logFC H2-Aa,"Dnmt3a^WT cells, vs H2O",0.9618
same,logFC H2-Ab1,"Dnmt3a^WT cells, vs H2O",0.9351
same,logFC H2-DMb2,"Dnmt3a^WT cells, vs H2O",0.7028
same,logFC H2-Eb1,"Dnmt3a^WT cells, vs H2O",1.049
same,logFC Hgfac,"Dnmt3a^WT cells, vs H2O",0.647
same,logFC Hist1h2bj,"Dnmt3a^WT cells, vs H2O",1.326
same,logFC Hist1h3c,"Dnmt3a^WT cells, vs H2O",0.7275
same,logFC Hist1h3e,"Dnmt3a^WT cells, vs H2O",1.345
same,logFC Hist1h4d,"Dnmt3a^WT cells, vs H2O",0.8341
same,logFC Hivep2,"Dnmt3a^WT cells, vs H2O",0.787
same,logFC Hivep3,"Dnmt3a^WT cells, vs H2O",−0.682
same,logFC Hmga1,"Dnmt3a^WT cells, vs H2O",0.812
same,logFC Hsh2d,"Dnmt3a^WT cells, vs H2O",0.6798
same,logFC Htr7,"Dnmt3a^WT cells, vs H2O",0.9558
same,logFC I113,"Dnmt3a^WT cells, vs H2O",1.008
same,logFC Ifi27l2a,"Dnmt3a^WT cells, vs H2O",0.8565
same,logFC Ifi44,"Dnmt3a^WT cells, vs H2O",0.8977
same,logFC Ifi204,"Dnmt3a^WT cells, vs H2O",0.7452
same,logFC Ifit1,"Dnmt3a^WT cells, vs H2O",1.338
same,logFC Ifit3,"Dnmt3a^WT cells, vs H2O",1.739
same,logFC Ifit3b,"Dnmt3a^WT cells, vs H2O",1.88
same,logFC Igll1,"Dnmt3a^WT cells, vs H2O",−2.359
same,logFC Il1a,"Dnmt3a^WT cells, vs H2O",−1.749
same,logFC Il1b,"Dnmt3a^WT cells, vs H2O",−1.155
same,logFC Il6,"Dnmt3a^WT cells, vs H2O",0.8099
same,logFC Irf7,"Dnmt3a^WT cells, vs H2O",1.151
same,logFC Irg1,"Dnmt3a^WT cells, vs H2O",−0.846
same,logFC Isg15,"Dnmt3a^WT cells, vs H2O",1.268
same,logFC Jakmip1,"Dnmt3a^WT cells, vs H2O",−0.62
same,logFC Kcnj5,"Dnmt3a^WT cells, vs H2O",−0.586
same,logFC Kif19a,"Dnmt3a^WT cells, vs H2O",−2.028
same,logFC Klrd1,"Dnmt3a^WT cells, vs H2O",0.6629
same,logFC Kynu,"Dnmt3a^WT cells, vs H2O",0.8281
same,logFC Lad1,"Dnmt3a^WT cells, vs H2O",1.447
same,logFC Lax1,"Dnmt3a^WT cells, vs H2O",−1.106
same,logFC Lef1,"Dnmt3a^WT cells, vs H2O",−1.83
same,logFC Lgals3bp,"Dnmt3a^WT cells, vs H2O",0.6079
same,logFC Lrrc32,"Dnmt3a^WT cells, vs H2O",0.6455
same,logFC Lrrc51,"Dnmt3a^WT cells, vs H2O",0.7656
same,logFC Ltbp4,"Dnmt3a^WT cells, vs H2O",−0.7
same,logFC Lynx1,"Dnmt3a^WT cells, vs H2O",0.6016
same,logFC Mir6236,"Dnmt3a^WT cells, vs H2O",1.076
same,logFC Mir6516,"Dnmt3a^WT cells, vs H2O",0.6089
same,logFC Mir8112,"Dnmt3a^WT cells, vs H2O",0.8138
same,logFC Mmp14,"Dnmt3a^WT cells, vs H2O",−0.771
same,logFC Mnda,"Dnmt3a^WT cells, vs H2O",0.9121
same,logFC Mpl,"Dnmt3a^WT cells, vs H2O",−0.631
same,logFC Ms4a4c,"Dnmt3a^WT cells, vs H2O",1.575
same,logFC Mx1,"Dnmt3a^WT cells, vs H2O",0.6985
same,logFC Mx2,"Dnmt3a^WT cells, vs H2O",1.416
same,logFC Mzb1,"Dnmt3a^WT cells, vs H2O",−1.509
same,logFC Nov,"Dnmt3a^WT cells, vs H2O",0.9714
same,logFC Nr4a3,"Dnmt3a^WT cells, vs H2O",0.7772
same,logFC Oas1a,"Dnmt3a^WT cells, vs H2O",0.8999
same,logFC Oas1b,"Dnmt3a^WT cells, vs H2O",0.8441
same,logFC Oas1c,"Dnmt3a^WT cells, vs H2O",0.6578
same,logFC Oas1g,"Dnmt3a^WT cells, vs H2O",1.142
same,logFC Oas2,"Dnmt3a^WT cells, vs H2O",0.966
same,logFC Oas3,"Dnmt3a^WT cells, vs H2O",0.864
same,logFC Oasl1,"Dnmt3a^WT cells, vs H2O",1.088
same,logFC Oasl2,"Dnmt3a^WT cells, vs H2O",1.178
same,logFC Oit3,"Dnmt3a^WT cells, vs H2O",0.5873
same,logFC P4htm,"Dnmt3a^WT cells, vs H2O",0.6018
same,logFC Parp12,"Dnmt3a^WT cells, vs H2O",0.7346
same,logFC Pcbd1,"Dnmt3a^WT cells, vs H2O",−0.601
same,logFC Pcsk9,"Dnmt3a^WT cells, vs H2O",−0.871
same,logFC Pdgfb,"Dnmt3a^WT cells, vs H2O",0.647
same,logFC Perp,"Dnmt3a^WT cells, vs H2O",0.6841
same,logFC Pglyrp2,"Dnmt3a^WT cells, vs H2O",0.8355
same,logFC Phf11b,"Dnmt3a^WT cells, vs H2O",1.046
same,logFC Plcb1,"Dnmt3a^WT cells, vs H2O",0.628
same,logFC Plek2,"Dnmt3a^WT cells, vs H2O",1.111
same,logFC Pou2af1,"Dnmt3a^WT cells, vs H2O",−1.979
same,logFC Ppbp,"Dnmt3a^WT cells, vs H2O",0.6175
same,logFC Procr,"Dnmt3a^WT cells, vs H2O",−0.659
same,logFC Prok2,"Dnmt3a^WT cells, vs H2O",−0.608
same,logFC Ptch2,"Dnmt3a^WT cells, vs H2O",−0.695
same,logFC Ptpn 14,"Dnmt3a^WT cells, vs H2O",−1.123
same,logFC Ptprn,"Dnmt3a^WT cells, vs H2O",0.7392
same,logFC Rab17,"Dnmt3a^WT cells, vs H2O",−0.755
same,logFC Rag1,"Dnmt3a^WT cells, vs H2O",−3.551
same,logFC Ramp3,"Dnmt3a^WT cells, vs H2O",0.8948
same,logFC Rbp1,"Dnmt3a^WT cells, vs H2O",−0.727
same,logFC Rsad2,"Dnmt3a^WT cells, vs H2O",1.141
same,logFC Rsph1,"Dnmt3a^WT cells, vs H2O",−0.696
same,logFC Rtp4,"Dnmt3a^WT cells, vs H2O",1.478
same,logFC Scn4b,"Dnmt3a^WT cells, vs H2O",−2.647
same,logFC Sdc3,"Dnmt3a^WT cells, vs H2O",0.6166
same,logFC Siglech,"Dnmt3a^WT cells, vs H2O",−0.625
same,logFC Sirpb1b,"Dnmt3a^WT cells, vs H2O",−0.633
same,logFC Slc25a27,"Dnmt3a^WT cells, vs H2O",−0.715
same,logFC Slc52a3,"Dnmt3a^WT cells, vs H2O",0.8162
same,logFC Slfn4,"Dnmt3a^WT cells, vs H2O",0.7308
same,logFC Slfn5,"Dnmt3a^WT cells, vs H2O",1.407
same,logFC Slfn8,"Dnmt3a^WT cells, vs H2O",0.8032
same,logFC Smim8,"Dnmt3a^WT cells, vs H2O",0.6316
same,logFC Smpdl3b,"Dnmt3a^WT cells, vs H2O",−0.714
same,logFC Snhg9,"Dnmt3a^WT cells, vs H2O",−0.7
same,logFC Spry1,"Dnmt3a^WT cells, vs H2O",0.6924
same,logFC Srp54b,"Dnmt3a^WT cells, vs H2O",2.042
same,logFC St6gal1,"Dnmt3a^WT cells, vs H2O",−0.723
same,logFC Stbd1,"Dnmt3a^WT cells, vs H2O",0.7931
same,logFC Tmem51,"Dnmt3a^WT cells, vs H2O",0.6591
same,logFC Tnfrsf9,"Dnmt3a^WT cells, vs H2O",0.982
same,logFC Tnfrsf11b,"Dnmt3a^WT cells, vs H2O",3.017
same,logFC Tnni1,"Dnmt3a^WT cells, vs H2O",3.17
same,logFC Traf1,"Dnmt3a^WT cells, vs H2O",0.6999
same,logFC Tsku,"Dnmt3a^WT cells, vs H2O",−0.836
same,logFC Tspan13,"Dnmt3a^WT cells, vs H2O",−0.592
same,logFC Tssk6,"Dnmt3a^WT cells, vs H2O",0.668
same,logFC Ube2j2,"Dnmt3a^WT cells, vs H2O",0.8674
same,logFC Usp18,"Dnmt3a^WT cells, vs H2O",1.346
same,logFC Vpreb1,"Dnmt3a^WT cells, vs H2O",−2.268
same,logFC Vpreb2,"Dnmt3a^WT cells, vs H2O",−2.096
same,logFC Vpreb3,"Dnmt3a^WT cells, vs H2O",−2.553
same,logFC Wdr86,"Dnmt3a^WT cells, vs H2O",1.035
same,logFC Xaf1,"Dnmt3a^WT cells, vs H2O",1.054
same,logFC Zbp1,"Dnmt3a^WT cells, vs H2O",1.131
same,logFC Zbtb37,"Dnmt3a^WT cells, vs H2O",−0.702
same,logFC Zbtb46,"Dnmt3a^WT cells, vs H2O",1.256
same,differentially expressed genes (global transcriptomic analysis),WT HSPCs,few differentially expressed genes
